This note sets out measurements from US8367620B2, “Peptidic growth hormone secretagogues analog compounds and preparations thereof” (Centro de Ingenieria Genetica y Biotecnologia, priority 2006, dated 2013).

pIC50: −log10 of the molar value.

One assay has as its system lysozyme. As to the kind of experiment: Lysozyme levels in tilapia larvae treated by immersion. The assay is classed as in vivo, Oreochromis sp. The conditions noted are these: immersion 100 μg/L. The method, then: (§1) Growth stimulation experiments on tilapia Oreochromis sp. larvae were performed evaluating groups of 100 larvae with 0.01 g average, using the peptidic GHS analogs, in a 100 μg/L concentration, twice a week using an immersion time of one hour.
During this experiment lysozyme levels were also monitored and an increase of this immunity marker was obtained in the treated animals as shown in table 8.

The test system of assay [1] is Post-larvae of Litopenaeus vanamei. In words: Growth stimulation in shrimps by dietary supplementation. The class given is in vivo. To be noted: compound at 1% in post-larvae crustacean diet. The method, then: The peptidic GHS analogs were included at 1% in a post-larvae crustacean diet. Post-larvae of Litopenaeus vanamei were fed with the aforementioned diet in parallel with a control group with 1% BSA addition. The effect was measured with an optical micrometer and weighing the animals in a 0.1 mg precision scale.

For a further assay, the system named is tilapias. As to the kind of experiment: Growth acceleration on juvenile tilapias treated intraperitoneally. The assay is classed as in vivo. The conditions noted are these: juvenile tilapia, ip 0.1 μg/g twice a week, three weeks. The protocol: The compounds were dissolved in a sodium phosphate (PBS) buffer solution and injected twice a week, during three weeks at 0.1 μg/g of humid fish weight (gbw). Compounds were applied individually to a group of 10 male tilapias with an average weight of 60.41±10.36 g and a control group with an average weight of 60.58±19.67 g was receiving PBS only as a control, measuring the average weight every week, all animals in the experiment were labelled with microchips (Stoelting Co. Wood Dale, USA.). for proper identification.

The subject of assay [2] is primary cultures of granular cerebellum cells. The assay is classed as cell-based, Wistar rats. To be noted: 500 μM hydrogen peroxide, rat cerebellum granular cells; read-out: IC50 during the induced neuronal damage by Hydrogen Peroxide addition to a primary culture of neurons. The method, then: Primary cultures of granular cerebellum cells were obtained from 7-9 days Wistar rats. After a rapid dissection, rat cerebellums were submerged in a cold solution and meningeal membranes were removed, each organ was transferred to a 2-3 ml fresh medium solution and finely sliced. Cells were dissociated using a Pasteur pipette and filtered through a nylon […] membrane (Falcon, Franklin Lakes, N.J.). The number of viable cells was determined by cell counting in a hematocytometer with tripan blue as a marker. Cells were cultured on polylysine covered 96 well plates at a density of 6250 cells in […] final volume. Cultures were kept at 37° C. in 5%. CO2 after 24 h, 10 μM of cytosine arabinofuranose (AraC; Sigma) was added to inhibit the proliferation of non-neuronal cells. The capacity of neural damage prevention was tested adding 500 μM hydrogen peroxide in different concentrations of peptidic GHS analog compounds, Cell survival was determined using the Promega non-radioactive cytotoxicity proliferation assay, Cell Titer 96 (Promega).

Another assay relates to PC12 cells. The class given is cell-based. The conditions noted are these: differentiated PC12 cells, 72 h incubation, MTT; read-out: IC50 during the NGF deprivation induced neuronal death. The protocol: PC12 cells were stored in 75 cm^2 culture flasks on DMEM containing 5% bovine foetal serum and 10% horse serum, with 50 μg/ml gentamicin. Cells were incubated at 37° C. in 5% CO2. To induce differentiation cells were transferred at a density of 1×10^4 to polylysine covered 96 well plates in NGF supplemented DMEM media for 7 days, with medium replacement every 2-3 days. After differentiation cells were incubated with peptidic GHS analog compounds, at different concentrations for 72 h. Cell survival and proliferation was determined using the Promega non-radioactive cytotoxicity proliferation assay, Cell Titer 96, based in the conversion of 3-(4,5-dimethylthiazole-2-yl)-2,5-diphenyltetrazolium bromide (MTT) in to a spectrophotometrically detectable product. After deprivation of NGF medium is removed and 15 μl of the DMEM dissolved dye is added, after 4 hours of 37° C. incubation 100 μl of the stopping solution is added and absorbance is measured at 570 nm

Assay [3] relates to Litopenaeus vanamei post-larvae. In words: Growth of shrimp post-larvae fed Artemia-bioencapsulated compounds. The class given is in vivo. The conditions noted are these: Artemia bioencapsulated (10 mh/L, one hour), fed four times a day for one month. The protocol:
The peptidic GHS analogs were bioencapsulated in Artemia to be fed to Litopenaeus vanamei post-larvae. For the encapsulation the compounds were added in a 10 mh/L left for an hour, harvested and washed. The animals were fed four times a day for one month while the control group was fed with BSA encapsulated Artemia The effect was measured with an optical micrometer and weighing the animals in a 0.1 mg precision scale.

The test system of the next assay is IGF-I mRNA. In words: IGF-I mRNA in liver and GH level of intraperitoneally injected tilapias. The assay is classed as in vivo, tilapia. To be noted: liver of intraperitoneally injected tilapias. The method, then: IGF-I mRNa was determined in the liver of intraperitoneally injected tilapias monitoring also the GH level time course, showing the peptidic GHS analog compounds as able to stimulate in fish the GH levels in the bloodstream and at incrementing the IGF-I mRNA levels after the injection of the compounds as shown in table 4.

The subject of assay [4] is tilapia Oreochromis sp. larvae. As to the kind of experiment: Growth stimulation of tilapia larvae by immersion. The assay is classed as in vivo. The conditions noted are these: immersion 100 μg/L, one hour twice a week, three weeks. The protocol:
as §1

For a further assay, the system named is Litopenaeus vanamei. In words: Growing of shrimp larvae by dipping in solution of the compounds. The assay is classed as in vivo. To be noted: four dips of one hour every three days, 0.1 g/L. The protocol:
Shrimp larvae were subjected two four dips, for one hour every three days with different peptidic GHS analogs at 0.1 g/L. The control group was subjected to the same frequency of dipping with 1 mg/L BSA.

Consider “ALDFKPNIP [Compound A225, L-amino acid peptide with internal side-chain cycle, SEC; ID NO: 5]”, for which the “Lysozyme levels of the treated animals relative to the control group” value in the assay on lysozyme was found to be 1.43. The “Size Inc. (%), control group growing = 100%” value (shortened to “Size Inc. (%)”) in assay [1] was 130.0%; in [3], 130.0%; with Litopenaeus vanamei, 112.6%. Also, the “Weight Inc. (%), control group growing = 100%” value (“Weight Inc. (%)” for short) in the assay on tilapias came to 120.0%; in assay [4], 98.0%; in the assay on Litopenaeus vanamei it was 121.0%. Further, the pIC50 in assay [2] is 5.40; with PC12 cells it was 5.39. Further, the “Normalized IGF-I mRNA levels to a non related synthetic peptide control group” value in the assay on IGF-I mRNA came to 1.38.

As to GDAGAKLLSSR [Compound A234], the “Lysozyme levels of the treated animals relative to the control group” value in the assay with lysozyme was determined as 2.77. The “Size Inc. (%)” value is given as 138.6% in assay [1], 135.0% in [3] and 114.2% in the assay with Litopenaeus vanamei. Besides, the “Weight Inc. (%)” value was found to be 110.6% with tilapias, 120.6% in assay [4] and 123.6% with Litopenaeus vanamei. Moreover, the pIC50 in assay [2] is 5.43; in the assay on PC12 cells, 5.23. Further, the “Normalized IGF-I mRNA levels to a non related synthetic peptide control group” value in the assay with IGF-I mRNA is listed as 1.17.

On to “GEGYKLDERSQ [Compound A236, L-amino acid peptide with internal side-chain cycle, SEC; ID NO: 16]”, for which the “Lysozyme levels of the treated animals relative to the control group” value in the assay on lysozyme turned out to be 1.42. Further, the “Size Inc. (%)” value was 137.0% in [1], 138.0% in assay [3] and 112.0% in the assay on Litopenaeus vanamei. Moreover, the “Weight Inc. (%)” value stood at 99.0% in the assay on tilapias, 105.0% in [4] and 121.0% with Litopenaeus vanamei. Also, the pIC50 in assay [2] is 5.48; in the assay on PC12 cells, 5.52. Also, in the assay on IGF-I mRNA, the “Normalized IGF-I mRNA levels to a non related synthetic peptide control group” value is 1.13.

“GGEAGKLCPPRY [Compound A237, L-amino acid peptide with internal side-chain cycle, SEC; ID NO: 17]”: the “Lysozyme levels of the treated animals relative to the control group” value in the assay with lysozyme is recorded as 1.01. In addition, the “Size Inc. (%)” value in assay [1] came out at 132.0%; in assay [3], 136.0%; in the assay with Litopenaeus vanamei it was 116.2%. In addition, the “Weight Inc. (%)” value with tilapias is on record as 100.0%; in assay [4], 109.9%; in the assay with Litopenaeus vanamei it was 127.0%. Besides, the pIC50 in assay [2] was 5.60; in the assay on PC12 cells, 5.48. The “Normalized IGF-I mRNA levels to a non related synthetic peptide control group” value in the assay with IGF-I mRNA was 1.201.

For the sequence “GGGKFWDIPHH [Compound A231, L-amino acid peptide with internal side-chain cycle, SEC; ID NO: 11]”, the “Lysozyme levels of the treated animals relative to the control group” value with lysozyme is 1.89. Moreover, the “Size Inc. (%)” value amounted to 140.1% in assay [1], 140.2% in [3] and 123.0% in the assay on Litopenaeus vanamei. For the same sequence, the “Weight Inc. (%)” value in the assay with tilapias is 150.2%; in [4], 151.0%; in the assay with Litopenaeus vanamei, 130.0%. The pIC50 is 5.46 in [2] and 5.40 in the assay with PC12 cells. In the assay on IGF-I mRNA, the “Normalized IGF-I mRNA levels to a non related synthetic peptide control group” value turned out to be 1.39.

For GKFDSPEHQ [Compound A230], the “Lysozyme levels of the treated animals relative to the control group” value in the assay on lysozyme is 1.33. For the same sequence, the entries for the “Size Inc. (%)” value (in assay [1]; in assay [3]; with Litopenaeus vanamei) were 140.0%, 140.0% and 123.6%, respectively. Besides, the “Weight Inc. (%)” value in the assay on tilapias was determined as 158.0%; in [4] it was 150.0%; in the assay on Litopenaeus vanamei, 150.0%. Further, the figures for the pIC50 (in [2]; with PC12 cells) were 5.42 and 5.39, respectively. Moreover, the “Normalized IGF-I mRNA levels to a non related synthetic peptide control group” value with IGF-I mRNA worked out at 1.48.

Take “GLEFKLLHQ [Compound A238, L-amino acid peptide with internal side-chain cycle, SEC; ID NO: 18]”: in the assay on lysozyme, the “Lysozyme levels of the treated animals relative to the control group” value amounted to 1.33. For the same sequence, the entries for the “Size Inc. (%)” value (in assay [1]; in [3]; with Litopenaeus vanamei) were 130.1%, 140.0% and 117.9%, respectively. Besides, the “Weight Inc. (%)” value in the assay on tilapias worked out at 129.4%; in [4], 112.6%; in the assay on Litopenaeus vanamei, 129.2%. In addition, the pIC50 in assay [2] is 6.00; in the assay on PC12 cells it was 5.69. Besides, the “Normalized IGF-I mRNA levels to a non related synthetic peptide control group” value in the assay with IGF-I mRNA amounted to 1.24.

Consider “GMEAGIKLCHRQ [Compound A235, L-amino acid peptide with internal side-chain cycle, SEC; ID NO: 15]”, for which the “Lysozyme levels of the treated animals relative to the control group” value in the assay with lysozyme is given as 1.90. For the same sequence, the “Size Inc. (%)” value is recorded as 137.0% in assay [1], 134.2% in [3] and 112.5% in the assay with Litopenaeus vanamei. Further, the “Weight Inc. (%)” value in the assay with tilapias amounted to 89.9%; in [4], 90.0%; in the assay with Litopenaeus vanamei it was 121.0%. Moreover, the pIC50 in [2] was 6.00; in the assay on PC12 cells it was 5.69. Further, in the assay with IGF-I mRNA, the “Normalized IGF-I mRNA levels to a non related synthetic peptide control group” value is 0.9.

Take “HAKPGGIDPEQ [Compound A229, L-amino acid peptide with internal side-chain cycle, SEC; ID NO: 9]”: the “Lysozyme levels of the treated animals relative to the control group” value with lysozyme turned out to be 1.15. In addition, the “Size Inc. (%)” value in assay [1] was 140.0%; in assay [3] it was 140.0%; with Litopenaeus vanamei, 115.9%. The “Weight Inc. (%)” value in the assay with tilapias is 126.5%; in assay [4], 125.0%; with Litopenaeus vanamei it was 126.1%. Further, the pIC50 was 5.88 in [2] and 5.47 in the assay on PC12 cells. The “Normalized IGF-I mRNA levels to a non related synthetic peptide control group” value in the assay on IGF-I mRNA was 1.09.
